Measurements from patent US20260102407A1, “TREATMENT METHODS” (priority 2020, published 2026).

Experiments:
genes induced by IL-1β = assay: RNA-seq of IL-1β-treated HMEC-1; assay type: cell-based, human; conditions: 30 μM, 20 ng/ml IL-1β 4 h
Description: RNA-seq. HMEC-1 were seeded into nine 100 mm petri dishes with complete MCDB131 medium containing 10% FBS. At 70-80% confluency, cells were growth-arrested with serum-free MCDB131 medium with no hydrocortisone or EGF for 44 h. Cells were pre-treated with 30 μM BT2 in the same medium for 4 h then stimulated with 20 ng/mL IL-1β for a further 4 h. Total RNA was extracted using RNeasy Mini Kit (Qiagen, Amtsgericht Dusseldorf) with modification. Briefly, cells were washed twice with pre-cooled 1×PBS and TRIzol (Thermo Fisher Sci, Waltham, MA) was added to lyze the cells. Chloroform was added to the mixture prior to centrifugation at 13000 rpm for 15 min at 4° C. Upper aqueous layer containing total RNA was transferred to fresh microtubes and isopropanol was added and loaded into RNeasy column. Columns were washed with Buffers RW1 and RPE. Total RNA was eluted from the column using RNAse-free water. Samples were submitted to The Ramaciotti Centre for Genomics (UNSW, Australia) for TruSeq Stranded mRNA-seq preparation and sequencing by One NextSeq 500 1×75 bp High Output flowcell with data output up to 400M reads. Quality control of samples was set at >80% higher than Q30 at 1×75 bp.
RNA-seq reads were first assessed for quality using the tool FastQC (v0.11.8) (On the World-Wide-Web at: bioinformatics.babraham.ac.uk/projects/fastqc/). The tool Salmon was used for quantifying transcript abundance from RNA-seq reads (Patro, R., et al., Nat Methods 14, 417-419 (2017)). The R package DESeq2 (Love, M. I., et al., Genome Biol 15, 550 (2014)) that incorporates a method for differential analysis of count data was then used to identify differentially expressed genes across specific comparisons. The heatmap.2 function from the R package gplots v3.0.1.1 was used to generate heatmaps using counts per million (cpm) values for sets of genes of interest. The database for annotation, visualization and integrated discovery (DAVID) (Jiao, X., et al., Bioinformatics 28, 1805-1806 (2012)), a web-based online bioinformatics resource was used to identify the gene ontologies such as biological processes (BP) found to be enriched for lists of differentially expressed genes for specific comparisons.

CD31 = assay: Immunohistochemical staining of rat retina, CD31; assay type: in vivo; conditions: lasered rat eyes 21 days after injury
Source text: Rat choroidal laser injury model. Male Brown Norway pigmented rats (8-14 week-old) were anesthetized by an intramuscular injection of Rompun® (xylazine)/Imalgene® (ketamine). Pupils were dilated by instillation of one drop of 0.5% tropicamide before laser burn. Six burns were created in both eyes on Day 0 by applying 170 mW of 532 nm laser light (Viridis laser, Quantel, France) on 75 μm spots around the optic nerve, between the main retinal vessel branches, for 0.1s, through the slit lamp and contact lens. Production of a bubble at the time of laser application confirmed the rupture of Bruch's membrane. […] After anaesthesia, 10% sodium fluorescein (250 μl/100 g body weight) was injected subcutaneously, and ocular fluorescence was recorded 10 min after dye injection. Fluorescein leakage was evaluated on Days 14 and 21 in the angiograms by two examiners masked to the study groups and graded for fluorescein intensity as follows: score 0: no leakage; 1: slightly stained; 2: moderately stained; 3: strongly stained.
Immunohistochemical staining of rat retina. […] IOD of positive staining (red chromogen) was assessed for CD31, VEGF-A165, pERK, FosB and VCAM-1 using Image-Pro Plus software (Cybernetics, Bethesda, MD). IOD in IPL and INL was quantified for CD31; OPL to OS for VEGF-A165; INL to ONL for pERK; GCL to OS for FosB; OLM for VCAM-1, using Image-Pro Plus. […]

Question: Which “IL-1β-inducible FosB and VCAM-1 expression (RNA-seq)” value (genes induced by IL-1β) does the source give for `CCOC(=O)Nc1ccc2c(c1)C(=O)N(CC)c1ccccc1O2` [BT2, (10-ethyl-11-oxo-10,11-dihydro-dibenzo[b,f][1,4]oxazepin-2-yl)-carbamic acid ethyl ester] here?
Answer: Its value is “suppress IL-1β-inducible FosB and VCAM-1 expression”.

Question: What about the “expression of other regulatory genes including ICAM-1, CXCL2, KLF5, Egr-1 and Fos (RNA-seq)” value (genes induced by IL-1β) of the same compound?
Answer: The value was “inhibited a range of other regulatory genes”.

Question: What about the “number of the 325 IL-1β-induced genes (log FC≥2) inhibited (log FC≥2)” value (genes induced by IL-1β) of the same compound?
Answer: Its value is 89.

Question: And the “proportion of the 325 IL-1β-induced genes inhibited” value (genes induced by IL-1β)?
Answer: The value was 27.5%.

Question: And the “inducible CD31 staining in the IPL and INL” value (CD31)?
Answer: Its value is “inhibited inducible CD31 staining”.
